Data reported in ChEMBL document CHEMBL4373717, “Coumarin-containing hybrids and their anticancer activities” (Eur J Med Chem, 2019).
≈ marks a conversion by molar mass, not a printed value.

Columns and labels:
Type in all cases: functional, cell-based
[1] = system: K562; assay: Cytotoxicity against human K562 cells assessed as reduction in cell viability after 68 hrs by MTT assay; details: K562, 68 h
[2] = system: MCF7; assay: Cytotoxicity against human MCF7 cells assessed as reduction in cell viability after 68 hrs by MTT assay; details: MCF7, 68 h
[3] = system: A549; assay: Cytotoxicity against human A549 cells assessed as reduction in cell viability after 68 hrs by MTT assay; details: A549, 68 h
[4] = system: HeLa; assay: Cytotoxicity against human HeLa cells assessed as reduction in cell viability after 68 hrs by MTT assay
[5] = system: MCF7; assay: Cytotoxicity against human MCF7 cells assessed as reduction in cell viability after 48 hrs by MTT assay; details: MCF7, 48 h
[6] = system: MDA-MB-231; assay: Cytotoxicity against human MDA-MB-231 cells assessed as reduction in cell viability after 24 hrs by MTT assay
[7] = system: A549; assay: Cytotoxicity against human A549 cells assessed as reduction in cell viability after 24 hrs by MTT assay; details: A549, 24 h
[8] = system: A549; assay: Anticancer activity against human A549 cells by MTT assay
[9] = system: HeLa; assay: Anticancer activity against human HeLa cells by MTT assay
[10] = system: MDA-MB-231; assay: Anticancer activity against human MDA-MB-231 cells by MTT assay
[11] = system: K562; assay: Anticancer activity against human K562 cells by MTT assay
[12] = system: 769-P; assay: Anticancer activity against human 769-P cells by MTT assay
[13] = system: HepG2; assay: Anticancer activity against human HepG2 cells by MTT assay

Structure (SMILES): CCOc1cc(Br)cc2c1OCC([N+](=O)[O-])=C2
- IC50 [1]: 0.95 to 6.43 µM
- IC50 [2]: 0.95 to 6.43 µM
- IC50 [3]: 0.95 to 6.43 µM
- IC50 [4]: 0.95 to 6.43 µM

Structure (SMILES): O=Cc1c(-c2cc3cc(Br)ccc3oc2=O)[nH]c2ccccc12
- IC50 [5]: 5.5 to 100 µM

Structure (SMILES): COc1ccccc1-c1cc(-c2cc3ccccc3oc2=O)nc(Cc2ccc(F)cc2)n1
- IC50 ([6]; Homo sapiens, MDA-MB-231, 24 h): 2.15 to 28.6 µM
- IC50 [7]: 2.15 to 28.6 µM

Structure (SMILES): COc1ccccc1NC(=O)Nc1ccc(Cc2c(C)c3cc(C(C)(C)C)c(O)cc3oc2=O)cn1
- IC50 [1]: 1.66 to 19.4 µM
- IC50 [2]: 1.66 to 19.4 µM
- IC50 [3]: 1.66 to 19.4 µM
- IC50 [4]: 1.66 to 19.4 µM

Structure (SMILES): Cc1nn(-c2ccccc2)c(=O)n1-n1c(-c2cc3ccccc3oc2=O)cs/c1=N\c1ccc(Cl)cc1
- IC50 [8]: 0.16 to 1.12 µg/mL (≈ 0.303 to 2.12 µM)
- IC50 [9]: 0.16 to 1.12 µg/mL (≈ 0.303 to 2.12 µM)
- IC50 [10]: 0.16 to 1.12 µg/mL
- IC50 [11]: 0.16 to 1.12 µg/mL (≈ 0.303 to 2.12 µM)

Structure (SMILES): O=c1ccc2ccc(OCCCn3cc(COc4ccc5ccc(=O)oc5c4)nn3)cc2o1
- IC50 [10]: 0.383 to 13.6 µM
- IC50 [12]: 0.383 to 13.6 µM
- IC50 [13]: 0.383 to 13.6 µM

Structure (SMILES): O=c1oc2ccccc2cc1-c1cc(-c2cccc(Cl)c2)nc(Cc2ccc(F)cc2)n1
- IC50 ([6]; Homo sapiens, MDA-MB-231, 24 h): 2.15 to 28.6 µM
- IC50 [7]: 2.15 to 28.6 µM

Structure (SMILES): Cc1cc(=O)oc2cc(OCc3cn(CCCCCCCCCOc4ccc5ccc(=O)oc5c4)nn3)ccc12
- IC50 [10]: 0.383 to 13.6 µM
- IC50 [12]: 0.383 to 13.6 µM
- IC50 [13]: 0.383 to 13.6 µM

Structure (SMILES): O=c1oc2ccccc2cc1-c1cc(-c2ccccc2Br)nc(Cc2ccc(F)cc2)n1
- IC50 ([6]; Homo sapiens, MDA-MB-231, 24 h): 2.15 to 28.6 µM
- IC50 [7]: 2.15 to 28.6 µM

Structure (SMILES): O=c1oc2ccccc2cc1-c1cc(-c2ccccc2Cl)nc(Cc2ccc(F)cc2)n1
- IC50 ([6]; Homo sapiens, MDA-MB-231, 24 h): 2.15 to 28.6 µM
- IC50 [7]: 2.15 to 28.6 µM

Structure (SMILES): Cc1cc(=O)oc2cc(OCc3cn(CCCCCCCCCCOc4ccc5ccc(=O)oc5c4)nn3)ccc12
- IC50 [10]: 0.383 to 13.6 µM
- IC50 [12]: 0.383 to 13.6 µM
- IC50 [13]: 0.383 to 13.6 µM

Structure (SMILES): Cc1cc(-c2cc3cc(Br)ccc3oc2=O)n(-c2nc(-c3ccc(Cl)cc3)cs2)n1
- IC50 [5]: 4.03 to 31.5 µM

Structure (SMILES): Cc1cc(=O)oc2cc(OCc3cn(CCCCOc4ccc5ccc(=O)oc5c4)nn3)ccc12
- IC50 [10]: 0.383 to 13.6 µM
- IC50 [12]: 0.383 to 13.6 µM
- IC50 [13]: 0.383 to 13.6 µM

Structure (SMILES): Cc1cc(=O)oc2cc(OCc3cn(CCCOc4ccc5ccc(=O)oc5c4)nn3)ccc12
- IC50 [10]: 0.383 to 13.6 µM
- IC50 [12]: 0.383 to 13.6 µM
- IC50 [13]: 0.383 to 13.6 µM

Structure (SMILES): Cc1nn(-c2ccccc2)c(=O)n1-n1c(-c2cc3ccccc3oc2=O)cs/c1=N\c1ccccc1
- IC50 [8]: 0.16 to 1.12 µg/mL (≈ 0.324 to 2.27 µM)
- IC50 [9]: 0.16 to 1.12 µg/mL (≈ 0.324 to 2.27 µM)
- IC50 [10]: 0.16 to 1.12 µg/mL
- IC50 [11]: 0.16 to 1.12 µg/mL (≈ 0.324 to 2.27 µM)

Structure (SMILES): Cc1ccccc1-c1cc(-c2cc3ccccc3oc2=O)nc(Cc2ccc(F)cc2)n1
- IC50 ([6]; Homo sapiens, MDA-MB-231, 24 h): 2.15 to 28.6 µM
- IC50 [7]: 2.15 to 28.6 µM

Structure (SMILES): Cc1c(Cc2ccc(NC(=O)Nc3ccc(F)c(Cl)c3)nc2)c(=O)oc2cc(O)c(C(C)(C)C)cc12
- IC50 [1]: 1.66 to 19.4 µM
- IC50 [2]: 1.66 to 19.4 µM
- IC50 [3]: 1.66 to 19.4 µM
- IC50 [4]: 1.66 to 19.4 µM

Structure (SMILES): Cc1cccc(-c2cc(-c3cc4ccccc4oc3=O)nc(Cc3ccc(F)cc3)n2)c1
- IC50 ([6]; Homo sapiens, MDA-MB-231, 24 h): 2.15 to 28.6 µM
- IC50 [7]: 2.15 to 28.6 µM

Structure (SMILES): COc1ccc(-c2cc(-c3cc4ccccc4oc3=O)nc(Cc3ccc(F)cc3)n2)cc1
- IC50 ([6]; Homo sapiens, MDA-MB-231, 24 h): 2.23 µM
- IC50 [7]: 2.23 µM

Structure (SMILES): Cc1cccc(C)c1NC(=O)c1ccc(-n2cc(COc3cc(=O)oc4ccccc34)nn2)cc1
- IC50 ([6]; mda-mb-231): 0.03 to 91.6 µM

Structure (SMILES): COc1ccc(OC)c(NC(=O)c2ccc(-n3cc(COc4cc(=O)oc5ccccc45)nn3)cc2)c1
- IC50 ([6]; mda-mb-231): 0.03 to 91.6 µM

Structure (SMILES): Cc1ccc(-c2cc(-c3cc4ccccc4oc3=O)nc(Cc3ccc(F)cc3)n2)cc1
- IC50 ([6]; Homo sapiens, MDA-MB-231, 24 h): 2.15 to 28.6 µM
- IC50 [7]: 2.15 to 28.6 µM

Structure (SMILES): O=C(Nc1ccccc1)c1ccc(-n2cc(COc3cc(=O)oc4ccccc34)nn2)cc1
- IC50 ([6]; mda-mb-231): 0.03 to 91.6 µM

Structure (SMILES): COc1ccc(/N=c2\scc(-c3cc4ccccc4oc3=O)n2-n2c(C)nn(-c3ccccc3)c2=O)cc1
- IC50 [8]: 0.16 to 1.12 µg/mL (≈ 0.306 to 2.14 µM)
- IC50 [9]: 0.16 to 1.12 µg/mL (≈ 0.306 to 2.14 µM)
- IC50 [10]: 0.16 to 1.12 µg/mL
- IC50 [11]: 0.16 to 1.12 µg/mL (≈ 0.306 to 2.14 µM)

Structure (SMILES): O=c1oc2ccccc2cc1-c1cc(-c2cccc(Br)c2)nc(Cc2ccc(F)cc2)n1
- IC50 ([6]; Homo sapiens, MDA-MB-231, 24 h): 2.15 to 28.6 µM
- IC50 [7]: 2.15 to 28.6 µM

Structure (SMILES): COC(=O)c1cccc(NC(=O)c2ccc(-n3cc(COc4cc(=O)oc5ccccc45)nn3)cc2)c1
- IC50 ([6]; mda-mb-231): 0.03 to 91.6 µM

Structure (SMILES): Cc1cc(-c2cc3cc(Br)ccc3oc2=O)n(-c2nc(-c3ccccc3)cs2)n1
- IC50 [5]: 4.03 to 31.5 µM

Structure (SMILES): COc1ccc(/N=c2\scc(-c3cc4ccccc4oc3=O)n2-n2c(C)nn(-c3ccc(OC)cc3)c2=O)cc1
- IC50 [8]: 0.16 to 1.12 µg/mL (≈ 0.289 to 2.02 µM)
- IC50 [9]: 0.16 to 1.12 µg/mL (≈ 0.289 to 2.02 µM)
- IC50 [10]: 0.16 to 1.12 µg/mL
- IC50 [11]: 0.16 to 1.12 µg/mL (≈ 0.289 to 2.02 µM)

Structure (SMILES): O=c1ccc2ccc(OCCCCCCn3cc(COc4ccc5ccc(=O)oc5c4)nn3)cc2o1
- IC50 [10]: 0.383 to 13.6 µM
- IC50 [12]: 0.383 to 13.6 µM
- IC50 [13]: 0.383 to 13.6 µM

Structure (SMILES): O=C(O)c1c(-c2cc3cc(Cl)ccc3oc2=O)[nH]c2ccccc12
- IC50 [5]: 5.5 to 100 µM

Structure (SMILES): CCc1ccccc1NC(=O)c1ccc(-n2cc(COc3cc(=O)oc4ccccc34)nn2)cc1
- IC50 ([6]; mda-mb-231): 0.03 to 91.6 µM

Structure (SMILES): Cc1cc(=O)oc2cc(OCc3cn(CCCCCCOc4ccc5ccc(=O)oc5c4)nn3)ccc12
- IC50 [10]: 0.383 to 13.6 µM
- IC50 [12]: 0.383 to 13.6 µM
- IC50 [13]: 0.383 to 13.6 µM

Structure (SMILES): Cc1ccc(NC(=O)Nc2ccc(Cc3c(C)c4cc(C(C)(C)C)c(O)cc4oc3=O)cn2)cc1C
- IC50 [1]: 1.66 to 19.4 µM
- IC50 [2]: 1.66 to 19.4 µM
- IC50 [3]: 1.66 to 19.4 µM
- IC50 [4]: 1.66 to 19.4 µM
